Here are results for 63 sequences from the OligoGym collection.

The series addresses HSD17B13. The settings on record: ASO, HepaRG.

After the bases stand the sugars from the 5' end (letter, count) and the backbone: PS all phosphorothioate, else s phosphorothioate and o phosphodiester by linkage. Methylation of C is not given here. e = 2'-O-(2-methoxyethyl) (MOE); k = constrained ethyl (cEt); d = 2'-deoxy (DNA); m = 2'-O-methyl

As to TAGTGGGAGTCGGATT (sugars k3 d10 k3, PS), the target mRNA inhibition (1 µM) was found to be 54%.
Still for that read-out and setting: the figure for TTCACAAAAACTGGGC (sugars k3 d10 k3, PS) is 37%.
On the same count and under the same terms, the figure for “GTTAGAATAGTCTTCA (sugars kkdddddddddkekek, PS)” is 45%; for TGGCTATAGTAATTGC (sugars k3 d10 k3, PS) it is 34%.
The same measure, in the same setting: the figure for CCTTTGTATTTCGCTA (sugars k3 d10 k3, PS) is 47%.
With “TCATAGTGGACTTCAT (sugars kkdddddddddkekek, PS)”, the target mRNA inhibition (1 µM) amounted to 48%.
CCTAGTTACAAACCAC (sugars k3 d10 k3, PS) came in with a target mRNA inhibition (1 µM) of 51%.
As to TTGCAATGAGATTACC (sugars k3 d10 k3, PS), the target mRNA inhibition (1 µM) came out at 29%.
On to AATGTAAGAAGCCACG (sugars k3 d10 k3, PS), for which the target mRNA inhibition (1 µM) turned out to be 26%.
Take GAATTATTTCTTGCGA (sugars k3 d10 k3, PS): for the setting “1 µM”, the target mRNA inhibition amounted to 61%.
The same measure, in the same setting: the figure for “CTGGAACAATATGGGA (sugars kkdddddddddkekek, PS)” is 33%.
As to ACTGAAGGCTGTGTAC (sugars k3 d10 k3, PS), under “1 µM”, the target mRNA inhibition turned out to be 14%.
GCATGCGCAGTGACGC (sugars k3 d10 k3, PS) yielded a target mRNA inhibition (1 µM) of 36%.
As for “CTGGAACAATATGGGA (sugars k3 d1 m1 d9 k2, PS)”, the target mRNA inhibition (1 µM) came to 45%.
The same measure, in the same setting: in the case of “CGATCCTATATACATC (sugars k3 d9 k3 e1, PS)” it was 29%.
The same measure, in the same setting: in the case of “TTGATATTCTGTGGCA (sugars kkdddddddddkekek, PS)” it was 55%; in that of “CTGCTGCTAGTGCCAA (sugars k3 d9 k3 e1, PS)”, 66%; in that of “TCTTATGTAATAGCCA (sugars kkdddddddddkekek, PS)”, 65%.
Consider TCTAAAGCAGGCTACT (sugars k3 d10 k3, PS), for which the target mRNA inhibition (1 µM) stood at 32%.
As for GGCAAACCTTGAATGA (sugars k3 d10 k3, PS), the target mRNA inhibition (1 µM) stood at 61%.
Where the note is “1 µM”, ATATGGGATGAGGTAA (sugars k3 d10 k3, PS) displayed a target mRNA inhibition of 37%.
Still for that read-out and setting: in the case of “TGCCAAACCAATGTTT (sugars k3 d1 m1 d8 k3, PS)” it was 35%; in that of AAATTGGCCTCCTGGG (sugars k3 d10 k3, PS), 44%; in that of ACTGTCCCAGCATTAT (sugars k3 d10 k3, PS), 40%.
Still for that read-out and setting: the figure for TTACCCCTGGCTTTTC (sugars k3 d10 k3, PS) is 26%.
With “TTGAGTAGTGTAAGCT (sugars kkdddddddddkekek, PS)”, the target mRNA inhibition (1 µM) stood at 29%.
Same read-out and setting: in the case of “TATTGGTAAGTATTCC (sugars k3 d9 k3 e1, PS)” it was 48%.
Still for that read-out and setting: in the case of TGTACCAAACTTGCCC (sugars k3 d10 k3, PS) it was 53%.
Still for that read-out and setting: the figure for AGCGATAGATCTCTTC (sugars k3 d10 k3, PS) is 31%.
Regarding “GTAAGTATTCCATCTA (sugars k3 d1 m1 d8 k3, PS)”, the target mRNA inhibition (1 µM) is 43%.
On to “CTACUTGAACAGTCTT (sugars k3 d1 m1 d8 k3, PS)”, for which the target mRNA inhibition (0.02 µM) turned out to be 9%; the target mRNA inhibition (0.078 µM) turned out to be 22%; the target mRNA inhibition (0.313 µM) was determined as 46%; the target mRNA inhibition (1 µM) amounted to 79%; the target mRNA inhibition (1.25 µM) was 77%; the target mRNA inhibition (5 µM) worked out at 76%.
TCTTACGACTTCATCT (sugars k3 d10 k3, PS) showed a target mRNA inhibition (1 µM) of 34%.
For “TTTAAAATAGAGTCGG (sugars k3 d1 m1 d8 k3, PS)”, where the note is “1 µM”, the target mRNA inhibition was determined as 77%.
Same read-out and setting: the figure for GAAGACTACATTAACA (sugars k3 d10 k3, PS) is 36%; for “GTTAUTCTCTTGACAA (sugars k3 d1 m1 d8 k3, PS)” it is 29%.
Same read-out and setting: the figure for TCCAGGTTGAGATAAA (sugars k3 d10 k3, PS) is 70%.
In turn, GTCCAGAATAGAGTTG (sugars k3 d10 k3, PS) yielded a target mRNA inhibition (1 µM) of 60%.
Same read-out and setting: the figure for “CTGTGGCATGGCTACA (sugars kkdddddddddkekek, PS)” is 33%.
Sequence CCCTAGATTCTACACT (sugars k3 d10 k3, PS) returned a target mRNA inhibition (1 µM) of 22%.
Under “1 µM”, “CTTGAACAGTCTTAAA (sugars kkdddddddddkekek, PS)” gave a target mRNA inhibition of 38%.
The same measure, in the same setting: the figure for TATTAGTTGGCCTGCC (sugars k3 d10 k3, PS) is 14%; for AACCTTTGTTGCCTGG (sugars k3 d10 k3, PS) it is 36%; for GTAATTGCTATAGTAA (sugars k3 d10 k3, PS) it is 33%.
For TCAAAGTCAGTATCCC (sugars k3 d10 k3, PS), the target mRNA inhibition runs as follows: (0.02 µM) 5%; (0.078 µM) 19%; (0.313 µM) 48%; (1 µM) 79%; (1.25 µM) 75%; (5 µM) 88%.
For CCATAATCTTGTGCTT (sugars k3 d10 k3, PS), the target mRNA inhibition (1 µM) worked out at 32%.
Same read-out and setting: in the case of CACAGAACCAATATGC (sugars k3 d10 k3, PS) it was 54%; in that of CAAGAGTTCTTGCAGA (sugars k3 d10 k3, PS), 17%; in that of “ATCAAGACATTCTAGC (sugars kkdddddddddkekek, PS)”, 30%.
Still for that read-out and setting: the figure for GACACTAATTTAGTCA (sugars k3 d10 k3, PS) is 11%; for TAAACTAGTGGTAATG (sugars k3 d10 k3, PS) it is 14%; for TCTGTGGCATGGCTAC (sugars k3 d10 k3, PS) it is 67%.
Regarding AGGCTAAAATGGTCAT (sugars k3 d10 k3, PS), the target mRNA inhibition (1 µM) was 36%.
Still for that read-out and setting: the figure for CCTGCTGAAACTTGAT (sugars k3 d10 k3, PS) is 19%; for CTTAGTGTAGAATTGT (sugars k3 d10 k3, PS) it is 56%.
As to “CAAGAGGATAGTCCAT (sugars kkdddddddddkekek, PS)”, the target mRNA inhibition (1 µM) worked out at 22%.
Same read-out and setting: the figure for GGCAAATTTGCTGGAA (sugars k3 d10 k3, PS) is 54%; for TTTATGTAAGCACAGA (sugars k3 d10 k3, PS) it is 70%.
GTCTACCACATACGCA (sugars k3 d10 k3, PS): for the setting “1 µM”, the target mRNA inhibition was found to be 66%.
The sequence TTTCAGATCCCGTTCT (sugars k3 d10 k3, PS) displayed a target mRNA inhibition (1 µM) of 45%.
In turn, AGGCTTATGAAGTTAG (sugars k3 d10 k3, PS) registered a target mRNA inhibition (1 µM) of 57%.
In turn, “TTATAACTACAAGAGG (sugars k3 d9 k3 e1, PS)” came in with a target mRNA inhibition (1 µM) of 43%.
Sequence GGATAGTGAACATACA (sugars k3 d10 k3, PS) had a target mRNA inhibition (1 µM) of 62%.
Turning to “GCTTTTGTCCACCTTT (sugars k3 d9 k3 e1, PS)”, the target mRNA inhibition is, setting by setting: (0.02 µM) 0%; (0.078 µM) 17%; (0.313 µM) 37%; (1 µM) 81%; (1.25 µM) 69%; (5 µM) 83%.
